# Experimental data: US8354265B2, “Chemicals promoting the growth of N-acylhomoserine lactone-degrading bacteria” (Centre National de la Recherche Scientifique, priority 2007, dated 2013)
# Assays:
# [1] = system: bacteria recovered from the consortia; assay: NAHL production and inactivation by isolates recovered from the consortia, with rrs identification; format: cell-based
# bacterial consortia = assay: Inactivation of C6-HSL and OC8-HSL by mannitol, 6CL, GCL and HTN consortia; format: cell-based
# From the text: The Mannitol-, 6CL-, GCL-, and HTN-consortia were compared for their capacity to inactivated OC8-HSL, the major NAHL produced by the plant pathogen Erwinia carotovora subsp. atroseptica 6276, as well as for their biocontrol activity against this pathogen in potato maceration assay.
# [2] = system: NAHL-degrading bacteria in the nutritive solution; assay: Ratio of NAHL-degrading bacteria in unplanted batches of nutritive solution; format: cell-based; details: for percentage of NAHL-degrading bacteria in the nutritive solution: without plants
# Description: (§1) The non sterile batches (40×60×8 cm) contained 13 L of the nutritive solution Hydrobloom (Cellmax, UK) with Nitrogen at 0.80 g/L, Phosphore at 0.56 g/L and Potassium at 1.48 g/L as major components. The solution was diluted from a concentrated stock solution (×250) with non sterile water from the public water system. One hundred plants of Solanum tuberosum var. Allians, which were recovered from cultures performed under sterile conditions, were placed into holes (3 cm space to each other) of batch covers. Planted batches were placed in the greenhouse (Comité Nord Plants de Pomme de Terre, Bretteville-du-Grand-Caux) under natural light at 10-15° C. (night) and 25-30° C. (day). […] An untreated batch was used as a control. One gram of roots (fresh weight) was resuspended in 10 mL of sterile MgSO4 10 mM, diluted and spread on TSA and King B plates to isolate total cultivable bacteria and fluorescent Pseudomonas, respectively. Three samples were analyzed from each batch at each time D0, D14 and D28; from each sample, thirty isolates from TSA plates and thirty fluorescent isolates from King B plates were individually tested from production and inactivation of NAHL signal.
# (§2) Bacterial isolates grown in 96-microwell plates were individually tested from production of NAHL with the A. tumefaciens biosensor NT1 (pZNLR4) and the inactivation of the C6-HSL signal, as described previously (d'Angelo-Picard et al. 2004).
# Allians was evaluated. The plants were cultivated in vitro under sterile conditions, then placed into batches in a greenhouse at Bretteville-du-Grand-Caux (France) in a non-sterile environment. Especially, a non-sterile nutritive solution was used and served as a source of naturally occurring bacteria. […] The ratio of NAHL-degrading bacteria in the nutritive solution was evaluated before the treatment and 14-day later. This percentage increased from 10±2 to 30±2 in the case of the 6CL-treated batch and from 10±2 to 70±2 in the GCL-treated batch. From the 6CL- and GCL-treated batches, 10 NAHL-degrading bacteria were identified by their rrs sequence: 9 belonged to the Delftia genus, the other one to the Rhodococcus genus.
# [3] = system: NAHL-degrading rhizobacteria of potato rhizosphere; assay: Preliminary experiment in planted hydroponic batches: level and diversity of NAHL-degrading rhizobacteria (Table 1); format: in vivo, Solanum tuberosum var. Allians
# Description: as §1, §2
# At least 400 bp were submitted to the NCBI database.
# [4] = system: NAHL-degrading rhizobacteria; assay: Diversity of NAHL-degrading rhizobacteria after 6CL and GCL treatments, rrs sequencing (Table 2); format: in vivo, Solanum tuberosum
# Description: as §1
# The 5′-end of the rrs gene was amplified with primers pA (5′-[…]) (SEQ ID NO:1) and 518r (5′-[…]) (SEQ ID NO:2), and sequenced with pA primer by GenomeExpress (Meylan, France). At least 400 bp were submitted to the NCBI database. Although some sequence comparisons authorized identification of isolates at the species level, only the genus level was retained in this study for homogeneity.
# The isolates were identified by rrs-sequencing (Table 2). At D0, most of the NAHL-degrading isolates were identified as Delftia. However, at D14 and D28, the Agrobacterium isolates dominated in untreated batches, while they were not detected in the treated batches. In those, the more frequently counted bacteria were Delftia and Rhodococcus.
# [5] = system: acyl-HSL degrading strains of potato rhizosphere; assay: GCL treatment of potato plants in long-term hydroponic culture (FIG. 12); format: in vivo, Solanum tuberosum; design: dose or concentration left out as unconfirmed; details: 0.4 at D0, D18 and D49; at D28, D49 and D56
# Description: The plants were cultivated in hydroponic batches from D0 to D17, then transferred into hydroponic system allowing the long term culture until tuberisation. At each time, three samples (D0 and D7) and four samples (D28, D49 and D56) were analyzed: the number of CFU/g of roots was estimated (B), as well as the percentage of acyl-HSL-producing (C) and acyl-HSL degrading strains. Different letters indicate a significative difference (Student's t-test; α=0.05) between the two conditions, untreated and GCL-treated.
# The plants were cultivated in hydroponic batches from D0 to D17, then transferred into hydroponic system allowing the long term culture until tuberisation.
# [6] = system: NAHL-degrading rhizobacteria; assay: Diversity of NAHL-degrading rhizobacteria after 6CL and GCL treatments, rrs sequencing (Table 2); format: in vivo, Solanum tuberosum; details: isolates of treated batches
# young plants = assay: Sensitivity of young plants to the chemicals; details: high concentrations (1 mL/L); data not shown
# [7] = 6CL- and GCL-treated batches together, rrs sequence
smiles,measurement,setting,value
"CCC1CCC(=O)O1 (stereo not shown) [GCL, gamma-caprolactone]",NAHL-inactivating bacteria recovered from consortia,[1],recovered
same,NAHL-degrading isolates related to Chryseobacterium,[1]; 6CL and GCL consortia together,10%
same,NAHL-degrading isolates related to Delftia,[1]; 6CL and GCL consortia together,80 % of the identified strains
same,NAHL-degrading isolates related to Ralstonia,[1]; 6CL and GCL consortia together,3%
same,NAHL-degrading isolates related to Rhodococcus,[1]; 6CL and GCL consortia together,7%
same,NAHL-producing bacteria among isolates of the consortia,[1]; 280 isolates from 280 independent enrichments,none
same,speed of C6-HSL signal inactivation versus Mannitol consortia,bacterial consortia,inactivated more rapidly
same,speed of OC8-HSL signal inactivation versus Mannitol consortia,bacterial consortia,inactivated more rapidly
same,NAHL-degrading bacteria belonging to the Delftia genus (of 10 identified),[2]; [7],9
same,NAHL-degrading bacteria belonging to the Rhodococcus genus (of 10 identified),[2]; [7],one
same,percentage of NAHL-degrading bacteria in the nutritive solution,[2]; 14-day after treatment at 1 mL/L,70±2%
same,percentage of NAHL-degrading bacteria in the nutritive solution,[2]; before the treatment,10±2%
same,Log CFU/gram of root (fresh weight),[3]; D0 (before treatment),8.0 ± 7.5 Log CFU/gram of root (fresh we
same,NAHL degraders (%),[3]; D0 (before treatment),16.7 ± 0.1 %
same,NAHL producers (%),[3]; D0 (before treatment),6.7 ± 1.0%
same,rrs-identified NAHL-degraders: Delftia,"[3]; D0, of 8 isolates",3
same,rrs-identified NAHL-degraders: Pseudomonas,"[3]; D0, of 8 isolates",2
same,rrs-identified NAHL-degraders: Rhodococcus,"[3]; D0, of 8 isolates",3
same,Log CFU/gram of root (fresh weight),"[3]; D28, 0.1 mL/L",10.5 ± 9.8 Log CFU/gram of root (fresh we
same,NAHL degraders (%),"[3]; D28, 0.1 mL/L",33.3 ± 4.0 %
same,NAHL producers (%),"[3]; D28, 0.1 mL/L",11.1 ± 1.5%
same,identified genera of NAHL-degrading bacteria,"[3]; D28, 0.1 mL/L",3
same,rrs-identified NAHL-degraders: Bacillus,"[3]; D28, 0.1 mL/L, of 8 isolates",1
same,rrs-identified NAHL-degraders: Delftia,"[3]; D28, 0.1 mL/L, of 8 isolates",2
same,rrs-identified NAHL-degraders: Rhodococcus,"[3]; D28, 0.1 mL/L, of 8 isolates",5
same,rrs-identified NAHL-degraders: Delftia,"[4]; D14 and D28, 0.1 mL/L",16
same,rrs-identified NAHL-degraders: Others,"[4]; D14 and D28, 0.1 mL/L",2
same,rrs-identified NAHL-degraders: Pseudomonas,"[4]; D14 and D28, 0.1 mL/L",1
same,rrs-identified NAHL-degraders: Rhizobium,"[4]; D14 and D28, 0.1 mL/L",1
same,rrs-identified NAHL-degraders: Rhodococcus,"[4]; D14 and D28, 0.1 mL/L",60
same,rrs-identified NAHL-degraders: Delftia,"[4]; D14 and D28, 0.4 mL/L",9
same,rrs-identified NAHL-degraders: Pseudomonas,"[4]; D14 and D28, 0.4 mL/L",1
same,rrs-identified NAHL-degraders: Rhodococcus,"[4]; D14 and D28, 0.4 mL/L",96
same,percentage of A. tumefaciens isolates among the NAHL-degrading rhizobacteria,[4]; after GCL-treatments,decrease
same,effect on the percentage of acyl-HSL degraders,[5],clear effect
same,growth of Delftia and Rhodococcus isolates on the compound as a sole carbon source,[6],grew on GCL as a sole carbon source
same,sensitivity of young plants,young plants,sensitive
